According to patent publication US5668147A, “Quinolinecarboxylic acid derivatives and salts thereof” (Kaken Pharmaceutical Co., Ltd., priority 1993, dated 1997):

Columns and labels:
[1] = tested on: S. pyogenes Cook; test: Antibacterial activity, MIC by agar plate dilution assay; format: cell-based; parameters: unit not given here
Experimental: (§1) Antibacterial activities of the compounds of the present invention were measured as the minimum inhibitory concentration (MIC) by the agar plate dilution assay method according to the standard method of Japan Society of Chemotherapy. Ofloxacin (OFLX) was used as the control compound.

[2] = tested on: E. faecalis 1373; test: as above; format: cell-based; parameters: unit not given here
Experimental: as §1

[3] = tested on: E. coli JC3; test: as above; format: cell-based; parameters: unit not given here
Experimental: as §1

[4] = tested on: S. aureus KP90-3 (MRSA); test: as above; format: cell-based; parameters: unit not given here
Experimental: as §1

[5] = tested on: S. aureus Smith; test: as above; format: cell-based; parameters: unit not given here
Experimental: as §1

[6] = tested on: S. aureus JS1 (MRSA); test: as above; format: cell-based; parameters: unit not given here
Experimental: as §1

[7] = tested on: peripheral blood erythrocytes; test: Mutagenicity, micronucleus assay in mice; format: in vivo; settings: 8-week-old ICR mice; abdominally administered in olive oil; dose 200 mg/kg; before and 24, 48 and 72 hours after
Experimental: Micronucleus assay was performed using 8-week-old ICR mice to confirm whether the compounds have mutagenicity. The compound of Example 21a was suspended in olive oil, and the suspension was abdominally administered to mice. The peripheral blood was obtained before and 24, 48 and 72 hours after the administration, and smeared specimens of the peripheral blood were prepared by acridine orange dying. In each specimen, 1000 erythrocytes were observed and frequency of occurrence of micronucleus was recorded. The frequency was not changed even in dose 200 mg/kg.

[8] = Acute toxicity test, oral, ICR mice; settings: mouse, in vivo, 6-week-old ICR mice, orally, suspended in 0.5% methylcellulose
Experimental: Acute toxicity test was performed using 6-week-old ICR mice. The compound of Example 21a was used as the tested compound. The compound was suspended in a 0.5% solution of methylcellulose, and the suspension was orally administered. The value of LD50 was at least 4000 mg/kg.

Structure (SMILES)	Minimum Inhibitory Concentration (MIC) [1]	Minimum Inhibitory Concentration (MIC) [2]	Minimum Inhibitory Concentration (MIC) [3]	Minimum Inhibitory Concentration (MIC) [4]	Minimum Inhibitory Concentration (MIC) [5]	Minimum Inhibitory Concentration (MIC) [6]	frequency of occurrence of micronucleus [7]	LD50 [8]
O=C(O)c1cn(C2CC2)c2c(F)c(N3C[C@@H](CO)[C@H](C(F)(F)F)C3)c(F)cc2c1=O (relative stereo) [Example 6a, 1-Cyclopropyl-6,8-difluoro-1,4-dihydro-7-(trans-3-hydroxymethyl-4-trifluoromethyl-1-pyrrolidinyl)-4-oxoquinoline-3-carboxylic acid]	0.39	0.39	0.39	3.13	0.025	0.05	–	–
O=C(O)c1cn(C2CC2)c2c(Cl)c(N3C[C@@H](CO)[C@H](C(F)(F)F)C3)c(F)cc2c1=O (relative stereo) [Example 7a]	0.1	0.2	0.39	0.39	≤ 0.006	0.013	–	–
Nc1c(F)c(N2C[C@@H](CO)[C@H](C(F)(F)F)C2)c(F)c2c1c(=O)c(C(=O)O)cn2C1CC1 (relative stereo) [Example 8a]	0.39	0.2	0.2	3.13	≤ 0.006	0.013	–	–
COc1c(N2C[C@@H](CO)[C@H](C(F)(F)F)C2)c(F)cc2c(=O)c(C(=O)O)cn(C3CC3)c12 (relative stereo) [Example 9a, 1-Cyclopropyl-6-fluoro-1,4-dihydro-7-(trans-3-hydroxymethyl-4-trifluoromethyl-1-pyrrolidinyl)-8-methoxy-4-oxoquinoline-3-carboxylic acid]	0.2	0.2	0.39	0.78	≤ 0.006	0.013	–	–
Cl.NC[C@@H]1CN(c2c(F)cc3c(=O)c(C(=O)O)cn(C4CC4)c3c2F)C[C@H]1C(F)(F)F (relative stereo) [Example 12a, 7-(Trans-3-aminomethyl-4-trifluoromethyl-1-pyrrolidinyl)-1-cyclopropyl-6,8-difluoro-1,4-dihydro-4-oxoquinoline-3-carboxylic acid hydrochloride]	0.025	0.1	0.05	0.78	0.013	0.025	–	–
NC[C@@H]1CN(c2c(F)cc3c(=O)c(C(=O)O)cn(C4CC4)c3c2Cl)C[C@H]1C(F)(F)F (relative stereo) [Example 15a]	0.013	0.1	0.05	0.39	≤ 0.006	0.013	–	–
NC[C@@H]1CN(c2c(F)c(N)c3c(=O)c(C(=O)O)cn(C4CC4)c3c2F)C[C@H]1C(F)(F)F (relative stereo) [Example 18a]	0.013	0.05	0.025	1.56	≤ 0.006	≤ 0.006	–	–
COc1c(N2C[C@@H](CN)[C@H](C(F)(F)F)C2)c(F)cc2c(=O)c(C(=O)O)cn(C3CC3)c12 (relative stereo) [Example 21a]	0.025	0.1	0.1	0.78	0.013	0.013	not changed	≥ 4000 mg/kg
N[C@@H]1CN(c2c(F)cc3c(=O)c(C(=O)O)cn(C4CC4)c3c2F)C[C@H]1C(F)(F)F (relative stereo) [Example 23a]	0.78	0.78	0.2	12.5	0.1	0.2	–	–
N[C@@H]1CN(c2c(F)cc3c(=O)c(C(=O)O)cn(C4CC4)c3c2Cl)C[C@H]1C(F)(F)F (relative stereo) [Example 26a]	0.39	0.39	0.2	3.13	0.05	0.05	–	–
Nc1c(F)c(N2C[C@@H](N)[C@H](C(F)(F)F)C2)c(F)c2c1c(=O)c(C(=O)O)cn2C1CC1 (relative stereo) [Example 29a]	0.2	0.39	0.05	25	0.025	0.05	–	–
COc1c(N2C[C@@H](N)[C@H](C(F)(F)F)C2)c(F)cc2c(=O)c(C(=O)O)cn(C3CC3)c12 (relative stereo) [Example 31a]	0.39	0.39	0.39	3.13	0.05	0.05	–	–
N[C@@H]1CN(c2nc3c(cc2F)c(=O)c(C(=O)O)cn3-c2ccc(F)cc2F)C[C@H]1C(F)(F)F (relative stereo) [Example 35a]	0.39	0.78	0.78	25	0.05	0.1	–	–
CC1COc2c(N3CCN(C)CC3)c(F)cc3c(=O)c(C(=O)O)cn1c23 (centres unmarked) [OFLX, Ofloxacin, reference compound]	0.78	1.56	0.1	25	0.2	0.39	–	–
